Laboratory results as given in patent publication US20130035326A1 (AMBIT BIOSCIENCES CORPORATION, priority 2009, published 2013).
pIC50, pKd: −log10 of the molar value. “And” between values parts separate entries of the source, which are not always exact repeats. Equal entries are not always repeated.

Tests used:
[1] = target: kinase panel containing either 359 or 386 distinct kinases; experiment: Selectivity score S10 from competition binding against a panel of kinases; details: compounds at 10 μM; for Kinase specificty: S(10)-359 panel: panel of 359 distinct kinases; for Kinase specificty: S(10)-386 panel: panel of 386 distinct kinases
Method in brief: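 Compounds were tested at 10 μM in competition binding against T7 phage-fused or HEK-293-expressed DNA-tagged kinases with immobilized affinity ligands, 1 h at room temperature. Bound kinase was quantified by qPCR as percent of DMSO control; S10 is the fraction of distinct kinases (mutants excluded) with POC below 10.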

CSF-1R kinase = target: T1, CSF-1R kinase (Homo sapiens, UniProt P07333); experiment: Competition binding assay, CSF-1R Kd
T1 construct: made in house; host or cells: T7 phage display or HEK-293 cells
Method in brief: (§1)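 Kinases, either T7 phage fusions or HEK-293-expressed and DNA-tagged, competed for immobilised biotinylated affinity ligand against test compound, 1 h at RT in binding buffer with 6 mM DTT. Bound kinase eluted with 0.5 μM free ligand and quantified by qPCR; Kd from 11-point threefold dilutions.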

FLT3 kinase = target: T2, FLT3 kinase (Homo sapiens, UniProt P36888); experiment: Competition binding assay, FLT3 Kd
T2 construct: made in house; host or cells: T7 phage display or HEK-293 cells
T2 sequence (P36888 27-993): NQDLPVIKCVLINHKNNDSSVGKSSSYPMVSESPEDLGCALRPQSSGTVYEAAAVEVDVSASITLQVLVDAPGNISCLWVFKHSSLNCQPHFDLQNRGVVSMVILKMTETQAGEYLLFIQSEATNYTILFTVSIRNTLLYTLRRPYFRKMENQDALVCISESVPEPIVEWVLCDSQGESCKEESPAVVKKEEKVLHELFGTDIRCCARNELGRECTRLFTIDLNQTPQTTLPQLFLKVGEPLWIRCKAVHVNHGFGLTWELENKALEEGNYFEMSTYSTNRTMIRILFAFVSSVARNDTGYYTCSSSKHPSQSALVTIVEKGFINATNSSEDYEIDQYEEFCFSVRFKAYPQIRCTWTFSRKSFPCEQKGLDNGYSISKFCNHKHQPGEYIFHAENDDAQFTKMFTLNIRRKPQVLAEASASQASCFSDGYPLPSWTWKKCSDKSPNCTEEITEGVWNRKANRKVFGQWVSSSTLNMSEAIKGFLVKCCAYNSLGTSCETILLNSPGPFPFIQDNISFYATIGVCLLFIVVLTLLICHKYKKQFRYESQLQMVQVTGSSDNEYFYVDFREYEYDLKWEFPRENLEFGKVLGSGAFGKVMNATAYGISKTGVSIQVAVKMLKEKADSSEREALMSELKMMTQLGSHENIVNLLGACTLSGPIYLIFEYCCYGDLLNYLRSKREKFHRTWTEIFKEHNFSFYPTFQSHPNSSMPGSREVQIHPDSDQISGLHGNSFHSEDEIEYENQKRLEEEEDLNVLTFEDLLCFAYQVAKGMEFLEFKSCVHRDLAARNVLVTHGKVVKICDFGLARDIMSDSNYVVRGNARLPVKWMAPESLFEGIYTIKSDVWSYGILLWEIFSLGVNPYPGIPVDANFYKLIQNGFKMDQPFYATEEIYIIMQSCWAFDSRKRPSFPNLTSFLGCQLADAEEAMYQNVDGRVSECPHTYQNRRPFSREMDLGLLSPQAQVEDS
Method in brief: as §1

MV4-11 cells = experiment: MV4-11 cell proliferation assay (Alamar Blue); type: cell-based; details: Homo sapiens, MV4-11, 72 h, 3 days incubation
Method in brief: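 Flt3-ITD MV4-11 cells were serum-starved overnight in Iscove's with 0.5% FBS, then given compound at 9 half-log concentrations (0.5% DMSO) for 3 days at 37° C. Alamar Blue reduction was read after 3 h by fluorescence (560/590 nm). IC50 is the mean of duplicates versus negative control.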

KIT kinase = target: T3, KIT kinase (Homo sapiens, UniProt P10721); experiment: Competition binding assay, KIT Kd
T3 construct: made in house; host or cells: T7 phage display or HEK-293 cells
Method in brief: as §1

T3 sequence (P10721 26-976): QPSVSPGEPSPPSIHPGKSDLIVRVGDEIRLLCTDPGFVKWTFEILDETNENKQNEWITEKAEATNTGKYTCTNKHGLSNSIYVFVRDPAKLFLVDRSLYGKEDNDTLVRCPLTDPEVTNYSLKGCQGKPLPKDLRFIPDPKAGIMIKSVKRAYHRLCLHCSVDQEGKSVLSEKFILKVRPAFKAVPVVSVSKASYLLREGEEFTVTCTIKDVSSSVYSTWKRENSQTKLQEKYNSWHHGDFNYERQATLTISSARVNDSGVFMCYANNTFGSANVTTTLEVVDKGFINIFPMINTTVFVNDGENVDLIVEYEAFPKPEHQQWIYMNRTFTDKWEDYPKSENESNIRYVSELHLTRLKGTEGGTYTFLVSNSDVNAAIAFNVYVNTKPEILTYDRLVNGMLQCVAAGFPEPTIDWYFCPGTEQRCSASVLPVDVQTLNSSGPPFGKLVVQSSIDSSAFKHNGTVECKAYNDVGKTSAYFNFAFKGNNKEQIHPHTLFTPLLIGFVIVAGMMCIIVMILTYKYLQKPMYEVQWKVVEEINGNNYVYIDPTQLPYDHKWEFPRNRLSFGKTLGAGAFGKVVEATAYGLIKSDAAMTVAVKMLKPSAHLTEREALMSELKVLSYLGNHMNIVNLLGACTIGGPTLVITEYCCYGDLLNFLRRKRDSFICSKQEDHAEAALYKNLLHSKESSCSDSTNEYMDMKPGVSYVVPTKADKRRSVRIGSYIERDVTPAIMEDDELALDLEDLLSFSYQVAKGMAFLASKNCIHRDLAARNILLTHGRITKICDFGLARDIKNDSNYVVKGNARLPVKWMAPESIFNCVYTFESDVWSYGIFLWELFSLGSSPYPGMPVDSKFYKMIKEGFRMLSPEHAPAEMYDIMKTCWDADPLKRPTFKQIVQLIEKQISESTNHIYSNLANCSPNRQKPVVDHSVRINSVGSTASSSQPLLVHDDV
T1 sequence (P07333 20-972): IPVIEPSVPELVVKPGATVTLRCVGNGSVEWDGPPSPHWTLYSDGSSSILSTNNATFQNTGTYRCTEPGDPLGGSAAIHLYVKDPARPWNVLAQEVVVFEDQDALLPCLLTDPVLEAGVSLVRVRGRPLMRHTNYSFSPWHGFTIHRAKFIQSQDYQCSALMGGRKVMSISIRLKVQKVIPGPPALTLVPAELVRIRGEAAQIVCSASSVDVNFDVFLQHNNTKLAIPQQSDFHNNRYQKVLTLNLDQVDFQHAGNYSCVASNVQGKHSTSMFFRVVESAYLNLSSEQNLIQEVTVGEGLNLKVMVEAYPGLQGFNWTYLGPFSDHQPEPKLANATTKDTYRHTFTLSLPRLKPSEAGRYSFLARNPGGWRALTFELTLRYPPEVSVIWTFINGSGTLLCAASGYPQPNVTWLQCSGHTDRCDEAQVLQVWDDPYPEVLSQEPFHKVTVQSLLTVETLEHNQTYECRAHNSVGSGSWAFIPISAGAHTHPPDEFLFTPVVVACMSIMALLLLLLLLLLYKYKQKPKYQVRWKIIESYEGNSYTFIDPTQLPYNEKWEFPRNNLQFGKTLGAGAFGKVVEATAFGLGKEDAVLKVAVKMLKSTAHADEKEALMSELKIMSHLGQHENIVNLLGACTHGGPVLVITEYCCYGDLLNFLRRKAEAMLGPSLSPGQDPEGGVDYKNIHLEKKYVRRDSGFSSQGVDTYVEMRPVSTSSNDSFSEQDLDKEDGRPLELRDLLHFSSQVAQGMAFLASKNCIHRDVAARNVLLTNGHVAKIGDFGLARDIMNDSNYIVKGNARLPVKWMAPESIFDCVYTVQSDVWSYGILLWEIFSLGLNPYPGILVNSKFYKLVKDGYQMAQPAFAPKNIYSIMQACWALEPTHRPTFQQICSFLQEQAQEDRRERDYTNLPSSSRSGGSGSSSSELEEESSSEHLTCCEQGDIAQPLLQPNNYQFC

| Structure (SMILES) | Kinase specificty: S(10)-359 panel [1] | Kinase specificty: S(10)-386 panel [1] | pKd (CSF-1R kinase) | pKd (FLT3 kinase) | pIC50 (MV4-11 cells) | pKd (KIT kinase) |
| --- | --- | --- | --- | --- | --- | --- |
| CC(CF)(CF)c1cc(NC(=O)Nc2ccc(-c3cnc(NCCN4CCOCC4)nc3)cc2)no1 [Example 52, 1-[5-(2-fluoro-1-fluoromethyl-1-methylethyl)isoxazol-3-yl]-3-{4-[2-(2-morpholin-4-yl-ethylamino)pyrimidin-5-yl]phenyl}urea] | B (0.1<B≦0.2 nM) | – | ≥ 8.00 | ≥ 9.00 | 8.00 to 9.00 | ≥ 9.00 |
| COCCNc1ncc(-c2ccc(NC(=O)Nc3cc(C(C)(C)C)on3)cc2)cn1 [Example 58, 1-(5-tert-butylisoxazol-3-yl)-3-{4-[2-(2-methoxyethylamino)pyrimidin-5-yl]-phenyl}urea] | B (0.1<B≦0.2 nM) | – | ≥ 8.00 | ≥ 9.00 | 8.00 to 9.00 | ≥ 9.00 |
| CC1(c2cc(NC(=O)Cc3ccc(-c4ccc(N)nc4F)cc3)no2)CC1 [Example 134, 2-(4-(6-amino-2-fluoropyridin-3-yl)phenyl)-N-(5-(1-methylcyclopropyl)isoxazol-3-yl)acetamide] | – | A (A≦0.1) | ≥ 8.00 | ≥ 9.00 | 8.00 to 9.00 | ≥ 9.00 |
| CC1(c2cc(NC(=O)Nc3ccc(-c4ccc(N)nc4)cn3)no2)CC1.CS(=O)(=O)O [Example 104, 6′-(3-(5-(1-methylcyclopropyl)isoxazol-3-yl)ureido)-3,3′-bipyridin-6-aminium methanesulfonate] | – | A (A≦0.1) | ≥ 8.00 | ≥ 9.00 | 7.00 to 8.00 | ≥ 9.00 |
| CC1(c2cc(NC(=O)Nc3ccc(-c4ccc(N)nc4)cc3)no2)CC1(F)F.CS(=O)(=O)O (stereo not drawn) [Example 112, 5-(4-(3-(5-(2,2-difluoro-1-methylcyclopropyl)isoxazol-3-yl)ureido)phenyl)pyridin-2-aminium methanesulfonate] | – | A (A≦0.1) | ≥ 8.00 | ≥ 9.00 | 8.00 to 9.00 | 8.00 to 9.00 |
| CS(=O)(=O)O.Nc1ccc(-c2ccc(CC(=O)Nn3cc(C(F)(F)F)cn3)cc2)cn1 [Example 126, 5-(4-(2-oxo-2-(4-(trifluoromethyl)-1H-pyrazol-1-ylamino)ethyl)phenyl)pyridin-2-aminium methanesulfonate] | – | A (A≦0.1) | 7.00 to 8.00 | ≥ 9.00 | 7.00 to 8.00 | 8.00 to 9.00 |
| CS(=O)(=O)O.Nc1ccc(-c2ccc(NC(=O)Nc3cc(C4(C(F)(F)F)CCC4)on3)cc2)cn1 [Example 121, 5-(4-(3-(5-(1-(trifluoromethyl)cyclobutyl)isoxazol-3-yl)ureido)phenyl)pyridin-2-aminium methanesulfonate] | – | A (A≦0.1) | 7.00 to 8.00 | 8.00 to 9.00 | ≥ 9.00 | 8.00 to 9.00 |
| CS(=O)(=O)O.Cc1cc(-c2ccc(CC(=O)Nc3cc(C4(C)COC4)on3)cc2)cnc1N [Example 145, 3-methyl-5-(4-(2-((5-(3-methyloxetan-3-yl)isoxazol-3-yl)amino)-2-oxoethyl)phenyl)pyridin-2-aminium methanesulfonate] | – | A (A≦0.1) | ≥ 8.00 | ≥ 9.00 | 7.00 to 8.00 | 8.00 to 9.00 |
| CC(C)(C)c1cc(NC(=O)Nc2ccc(-c3cnc4c(c3)CCC(=O)N4)cc2)no1 [Example 9, 1-(5-tert-butylisoxazol-3-yl)-3-(4-(7-oxo-5,6,7,8-tetrahydro-1,8-naphthyridin-3-yl)phenyl)urea] | A (A≦0.1) | – | ≥ 8.00 | 8.00 to 9.00 | 7.00 to 8.00 | 8.00 to 9.00 |
| CC1(c2cc(NC(=O)Cc3ccc(-c4ccc(N)nc4F)cc3)no2)COC1 [Example 140, 2-(4-(6-amino-2-fluoropyridin-3-yl)phenyl)-N-(5-(3-methyloxetan-3-yl)isoxazol-3-yl)acetamide] | – | A (A≦0.1) | ≥ 8.00 | ≥ 9.00 | 7.00 to 8.00 | 8.00 to 9.00 |
| Nc1ncc(-c2ccc(NC(=O)Cc3cccc(C(F)(F)F)c3)cc2)cn1 [Example 46, N-(4-(2-aminopyrimidin-5-yl)phenyl)-2-(3-(trifluoromethyl)phenyl)acetamide] | A (A≦0.1) | – | 7.00 to 8.00 | 8.00 to 9.00 | 7.00 to 8.00 | ≥ 9.00 |

Next, values leading:

| Kinase specificty: S(10)-359 panel [1] | Kinase specificty: S(10)-386 panel [1] | pKd (CSF-1R kinase) | pKd (FLT3 kinase) | pIC50 (MV4-11 cells) | pKd (KIT kinase) | Structure (SMILES) |
| --- | --- | --- | --- | --- | --- | --- |
| A (A≦0.1) | A (A≦0.1) | ≥ 8.00 | ≥ 9.00 and 8.00 to 9.00 | ≥ 9.00 | 8.00 to 9.00 | CC(C)(C)c1cc(NC(=O)Cc2ccc(-c3ccc(N)nc3)cc2)no1 [Example 18, 2-(4-(6-aminopyridin-3-yl)phenyl)-N-(5-tert-butylisoxazol-3-yl)acetamide] |
| A (A≦0.1) | – | ≥ 8.00 | ≥ 9.00 | 8.00 to 9.00 | 8.00 to 9.00 | Cc1cc(N)ncc1-c1ccc(NC(=O)Nc2cc(C(C)(C)C)on2)cc1 [Example 24, 1-(4-(6-amino-4-methylpyridin-3-yl)phenyl)-3-(5-tert-butylisoxazol-3-yl)urea] |
| – | B (0.1<B≦0.2 nM) | ≥ 8.00 | ≥ 9.00 | ≥ 9.00 | 8.00 to 9.00 | CC(C)(C)c1cc(NC(=O)Cc2ccc(-c3ccc(N)nc3)cc2F)no1 [Example 78, 2-(4-(6-aminopyridin-3-yl)-2-fluorophenyl)-N-(5-tert-butylisoxazol-3-yl)acetamide] |
| – | B (0.1<B≦0.2 nM) | ≥ 8.00 | ≥ 9.00 | ≥ 9.00 | 8.00 to 9.00 | CS(=O)(=O)O.Nc1ccc(-c2ccc(CC(=O)Nc3cc(C4(C(F)(F)F)CC4)on3)c(F)c2)cn1 [Example 139, 5-(3-fluoro-4-(2-oxo-2-(5-(1-(trifluoromethyl)cyclopropyl)isoxazol-3-ylamino)ethyl)phenyl)pyridin-2-aminium methanesulfonate] |
| A (A≦0.1) | – | ≥ 8.00 | ≥ 9.00 | 6.30 to 7.00 | ≥ 9.00 | Cc1cc(N)ncc1-c1ccc(NC(=O)Nc2cc(C(C)(C)C)on2)nc1 [Example 26, 1-(6′-amino-4′-methyl-3,3′-bipyridin-6-yl)-3-(5-tert-butylisoxazol-3-yl)urea] |
| B (0.1<B≦0.2 nM) | – | ≥ 8.00 | ≥ 9.00 | 8.00 to 9.00 | 8.00 to 9.00 | CC(C)(C)c1cc(NC(=O)Nc2cc(F)c(-c3ccc(N)nc3)cc2F)no1 [Example 20, 1-(4-(6-aminopyridin-3-yl)-2,5-difluorophenyl)-3-(5-tert-butylisoxazol-3-yl)urea] |
| – | B (0.1<B≦0.2 nM) | ≥ 8.00 | 8.00 to 9.00 | ≥ 9.00 | 8.00 to 9.00 | CC(C)(C)c1cc(NC(=O)Cc2ccc(-c3cnc(N)c(F)c3)cc2)no1.CS(=O)(=O)O [Example 94, 5-(4-(2-(5-tert-butylisoxazol-3-ylamino)-2-oxoethyl)phenyl)-3-fluoropyridin-2-aminium methanesulfonate] |
| – | A (A≦0.1) | < 6.30 | 8.00 to 9.00 | 6.30 to 7.00 | 7.00 to 8.00 | COc1nc(N)ccc1-c1ccc(CC(=O)Nc2cc(C(C)(C)C)on2)cc1.CS(=O)(=O)O [Example 131, 5-(4-(2-(5-tert-butylisoxazol-3-ylamino)-2-oxoethyl)phenyl)-6-methoxypyridin-2-aminium methanesulfonate] |
